Experiment: GHS categories as the set defines them, by LD50: 1 up to 5, 2 up to 50, 3 up to 300, 4 up to 2000, 5 above 2000 mg/kg
Conditions: rat; in vivo; po
`CC(C)C1=CC23CCC4C(C)(C(=O)N(C)C)CCCC4(C)C2CC1C1C(=O)OC(=O)C13` (stereo unspecified) gave a GHS category of 5.
Work on `CCCCCCCCCC` yielded a GHS category of 5.
Work on `C=C1CC[C@H]2O[C@]2(C)CC[C@@H]2[C@@H]1CC2(C)C` yielded a GHS category of 5.
`CCOC(=O)C1N=C(c2ccccc2F)c2cc(Cl)ccc2NC1=O` (stereo unspecified) gave a GHS category of 5.
In the case of `NC(=O)NC(c1ccccc1)c1ccccc1`, the GHS category was 5.
For `CNC(=O)c1cc(C(O)CNC(C)(C)CCN2C(=O)OC(C)(C)c3ccccc32)ccc1O` (stereo unspecified), the GHS category was 4.
With `CC(=O)Nc1ccc(S(=O)(=O)O)c2cc(S(=O)(=O)O)c(/N=N/c3ccc(/N=N/c4ccc(S(=O)(=O)O)cc4)c4ccc(S(=O)(=O)O)cc34)c(O)c12` the GHS category was 5.
Compound `ClCC(Cl)C(Cl)(Cl)Cl` (stereo unspecified) has a GHS category of 4.
Compound `OC1CCC2CCCCC2C1` (stereo unspecified) has a GHS category of 5.
`CCCCC(CC)CN1CN(CC(CC)CCCC)CC(C)(N)C1` (stereo unspecified) gave a GHS category of 4.
Compound `C[C@@H](Oc1cc(Br)cnc1N)c1c(Cl)ccc(F)c1Cl` has a GHS category of 5.
In the case of `CCOC(=O)c1cc(Cl)ccc1OC(N)=O`, the GHS category was 5.
For `OCC(CO)(CO)COCC(CO)(CO)CO`, the GHS category was 5.
With `CCCCC(CC)CNc1ccc(NCC(CC)CCCC)c2c1C(=O)c1c(O)ccc(O)c1C2=O` (stereo unspecified) the GHS category was 5.
`COc1ccc(CCN(C(=O)CCCSc2nnnn2C)C2CCCCC2)cc1OC` gave a GHS category of 4.
For `O=C(O)c1cc(=O)c2c(OCC(O)COc3cccc4oc(C(=O)O)cc(=O)c34)cccc2o1`, the GHS category was 5.
For `CCC(C(=O)Oc1ccccc1OC)c1ccc(-c2ccccc2)cc1` (stereo unspecified), the GHS category was 5.
`CC(Br)(CBr)COc1c(Br)cc(C(C)(C)c2cc(Br)c(OCC(C)(Br)CBr)c(Br)c2)cc1Br` (stereo unspecified) gave a GHS category of 5.
Work on `COC(=O)CC#N` yielded a GHS category of 5.
With `CC1CCCCCCCCCCCCC(=O)C1` (stereo unspecified) the GHS category was 5.
For `CCOC(=O)c1ccnc(C(=O)OCC)c1`, the GHS category was 5.
Compound `CO[C@H]1C=CO[C@@]2(C)Oc3c(C)c(O)c4c(c3C2=O)C2=NC3(CCN(CC(C)C)CC3)NC2=C(NC(=O)C(C)=CC=C[C@H](C)[C@H](O)[C@@H](C)[C@@H](O)[C@@H](C)[C@H](OC(C)=O)[C@@H]1C)C4=O` has a GHS category of 5.
For `CCCc1nc2ccnn2c(N)c1Cc1ccc(-c2ccccc2-c2nn[nH]n2)cc1`, the GHS category was 4.
With `C=CC(=O)Oc1c(Br)cc(Cl)c2cccnc12` the GHS category was 5.
Work on `CCCCC(=O)O[C@]1(C(=O)CO)[C@H](C)C[C@H]2[C@@H]3CCC4=CC(=O)C=C[C@]4(C)[C@@]3(F)[C@@H](O)C[C@@]21C` yielded a GHS category of 5.
Compound `CC1(C)C2CC[C@]3(C)C(CC=C4[C@H]5C[C@](C)(C(=O)O)CC[C@]5(C)CC[C@]43C)[C@@]2(C)CC[C@@H]1OC(=O)C=CC(=O)O` (stereo partly specified) has a GHS category of 5.
`COCC1COC(Cn2cncn2)(c2cc3cc(Cl)cc(Cl)c3o2)O1` (stereo unspecified) showed a GHS category of 4.
Work on `O=[N+]([O-])c1ccc(Nc2ccccc2)cc1` yielded a GHS category of 5.
`CCCCC(CC)COC(=O)C(C#N)=C(c1ccccc1)c1ccccc1` (stereo unspecified) showed a GHS category of 5.
With `Clc1ccc(I)cc1Cc1ccc(OC2CCOC2)cc1` (stereo unspecified) the GHS category was 5.
For `Cc1c([N+](=O)[O-])c(C)c([N+](=O)[O-])c(C(C)(C)C)c1[N+](=O)[O-]`, the GHS category was 5.
Compound `CCOC(=O)N(C)C1CCCN(c2nc(N)c3cc(OC)c(OC)cc3n2)C1` (stereo unspecified) has a GHS category of 4.
`CC(CCc1ccccc1)NC(C)C(O)c1ccc(O)cc1` (stereo unspecified) showed a GHS category of 5.
With `CCSP(=O)(SCC)SCC` the GHS category was 3.
Compound `C=CC(=O)OCC1(CC)COCOC1` has a GHS category of 5.
Compound `C=C(CC)CCCC(C)(C)OC(C)=O` has a GHS category of 5.
For `C=C(C)C(=O)OCCOC(=O)c1ccc2c(c1)C(=O)OC2=O`, the GHS category was 5.
Work on `CC(=O)Oc1ccc(C(c2ccc(OS(=O)(=O)O)cc2)c2ccccn2)cc1` (stereo unspecified) yielded a GHS category of 5.
`CSC` gave a GHS category of 4.
`c1ccc2oc(-c3ccc(-c4nc5ccccc5o4)s3)nc2c1` gave a GHS category of 5.
Work on `C=C(C)C1CCC(C)C(=O)C1` (stereo unspecified) yielded a GHS category of 5.
With `CN1C(C(=O)Nc2ccc(O)cn2)=C(O)c2sccc2S1(=O)=O` the GHS category was 2.
With `CCCCCCCCCCCCN1CCCCCC1=O` the GHS category was 5.
With `COCc1c(Cc2ccc(-c3ccccc3-c3nn[nH]n3)cc2)c(=O)nc2nc[nH]n12` the GHS category was 4.
`CN[C@@H]1[C@@H](O)[C@@H](O[C@@H]2[C@@H](O)[C@H](OC3OC(CN)=CCC3N)[C@@H](N)C[C@H]2N)OC[C@]1(C)O` (stereo partly specified) showed a GHS category of 5.
Compound `CCCOc1ccc(Cl)c2c(=O)c3ccccc3sc12` has a GHS category of 5.
`NC(CCOc1ccc(C(=NO)C(=O)NC2CN(C(C(=O)O)c3ccc(O)cc3)C2=O)cc1)C(=O)O` (stereo unspecified) gave a GHS category of 5.
In the case of `CC(C)OC(=O)c1cc(Cl)ccc1OC(N)=O`, the GHS category was 5.
For `CN(C(=O)CNCP(=O)(O)O)S(C)(=O)=O`, the GHS category was 2.
In the case of `CCO[Si](CN(CC)CC)(OCC)OCC`, the GHS category was 5.
`CNc1ccc([N+](=O)[O-])cc1` showed a GHS category of 5.
For `CC(=CCc1c(O)c(Cl)c(C)c(C=O)c1O)CCC=C(C)[C@@H]1CC(=O)C(C)(C)O1`, the GHS category was 5.
`Cc1[nH]n(-c2ccccc2)c(=O)c1N=Nc1ccc(-c2ccc(N=Nc3c(C)[nH]n(-c4ccccc4)c3=O)c(Cl)c2)cc1Cl` showed a GHS category of 5.
For `CCOC(=O)CCNc1ccccn1`, the GHS category was 5.
In the case of `CCN(C(=O)CCCCc1nnnn1-c1ccccc1)C1CCCCC1`, the GHS category was 4.
For `O=C(O)c1cc(O)ccc1Nc1cccc(C(F)(F)F)c1`, the GHS category was 4.
`COc1ccccc1N1CCN(/C(=N\CCCO)Nc2ccccc2)CC1` gave a GHS category of 4.
Work on `CCn1cc(C(=O)O)c(=O)c2cc(F)c(-n3cccc3)cc21` yielded a GHS category of 5.
`c1ccc(-c2cc3ccccc3[nH]2)cc1` showed a GHS category of 5.
Work on `CCOC(=O)C(=O)Nc1cccc(OC)c1C(N)=O` yielded a GHS category of 5.
`CCCC1OC(Cn2cncn2)(c2cc3ccccc3o2)OCC1CC` (stereo unspecified) gave a GHS category of 4.
Work on `Cn1nnnc1SCC1=C(C(=O)O)N2C(=O)[C@@H](NC(=O)[C@H](O)c3ccccc3)[C@H]2SC1` yielded a GHS category of 5.
Compound `Cc1c(C)c2c(c(C)c1OC(=O)c1cccnc1)CC[C@@](C)(CCC[C@H](C)CCC[C@H](C)CCCC(C)C)O2` (racemic) has a GHS category of 5.
Work on `C=C(C)COCC/C=C\CC` yielded a GHS category of 5.
Work on `CN[C@@H]1[C@H](O[C@H]2[C@H](O[C@@H]3[C@H](O)[C@@H](O)[C@@H](OC(N)=O)[C@@H](O)[C@@H]3NC(=N)N)O[C@@H](C)[C@]2(O)CO)O[C@@H](CO)[C@H](O)[C@H]1O` yielded a GHS category of 5.
Compound `CCC(=O)OC1C=CC2C3CCC(C3)C12` (stereo unspecified) has a GHS category of 5.
With `CCc1ccc(CC)cc1` the GHS category was 5.
For `O=C1CCCCCCCCCOCCCCCO1`, the GHS category was 5.
With `O=CCC(=O)c1ccc(C2CCCCC2)cc1` the GHS category was 4.
Work on `CC/C=C\CCOC(C)=O` yielded a GHS category of 5.
Compound `C[SiH](C)O[SiH](C)C` has a GHS category of 5.
Work on `CCCC(=O)O[C@]1(C(=O)CCl)[C@@H](C)C[C@H]2[C@@H]3CCC4=CC(=O)C=C[C@]4(C)[C@@]3(F)C(=O)C[C@@]21C` yielded a GHS category of 5.
`CCCCCCCCCCOC1OC(CO)C(O)C(O)C1O` (stereo unspecified) gave a GHS category of 5.
Compound `CCCC(=O)c1ccc2[nH]c(=O)oc2c1` has a GHS category of 5.
Work on `COC(=O)CCCCC(=O)OC` yielded a GHS category of 5.
For `CC(C=O)C(=O)c1ccc(C2CCCCC2)cc1` (stereo unspecified), the GHS category was 4.
For `Cl[Si](Cl)(C1CCCC1)C1CCCC1`, the GHS category was 5.
`NS(=O)(=O)c1cc(C(=O)NN2C[C@H]3[C@H]4CCC(C4)[C@H]3C2)ccc1Cl` showed a GHS category of 5.
`CCC(C)C(C#N)(CCN(CC=C(C)C)CC=C(C)C)c1cccc2ccccc12` (stereo unspecified) showed a GHS category of 4.
`CCCCCCC(O)CCO` (stereo unspecified) showed a GHS category of 5.
Work on `CC(C)OC[C@H]1CO[C@@](Cn2cncn2)(c2cc3cc(Cl)cc(Cl)c3o2)O1` yielded a GHS category of 4.
`O=S(=O)(O)c1ccc(/N=N/c2cc(CO)c(O)c(/N=N/c3ccc(S(=O)(=O)O)c4ccccc34)c2O)c2ccccc12` gave a GHS category of 5.
Compound `CCC(C(=O)NC(N)=O)c1ccccc1` (stereo unspecified) has a GHS category of 5.
Work on `C/C=C/C/C=C\CCCCCCCCOC(C)=O` yielded a GHS category of 4.
`CCCCCCC(=O)OC` showed a GHS category of 5.
In the case of `CCN(C(=O)CCCn1nnnc1C)C1CCCCC1`, the GHS category was 4.
`CC(C)(C)c1ccc2oc(-c3ccc(-c4nc5cc(C(C)(C)C)ccc5o4)s3)nc2c1` gave a GHS category of 5.
With `CCCCCCCCCCCCCCCCCC(=O)OCCOCCO` the GHS category was 5.
Work on `NC[C@H]1O[C@H](O[C@H]2[C@H](O)[C@@H](O[C@H]3O[C@H](CO)[C@@H](O)[C@H](N)[C@H]3O)[C@H](N)C[C@@H]2N)[C@H](O)[C@@H](O)[C@@H]1O` yielded a GHS category of 5.
`O=C(Nc1ccc(Cl)cc1)NS(=O)(=O)c1ccc2c(c1)CCC2` showed a GHS category of 4.
In the case of `Cc1nc2cc(Cl)ccc2o1`, the GHS category was 4.
For `CCCC(=O)OCCC(C)C`, the GHS category was 5.
Compound `O=C(O)CCCCCCCCCCCCCCCCC(=O)O` has a GHS category of 5.
Compound `CC(C)(C1CCCO1)C1CCCO1` (stereo unspecified) has a GHS category of 4.
With `CCNC(=O)CCCSCc1nnnn1CC` the GHS category was 4.
Work on `COc1ccc(Cl)cc1N/C(=N/C1CCCCC1)c1cccc(C)c1` yielded a GHS category of 4.
Work on `Cc1cc(C(=O)Nc2ccccc2C)n[nH]1` yielded a GHS category of 5.
For `CC(C)C[C@H](NC(=O)CNC(=O)[C@H](Cc1ccc(O)cc1)NC(=O)[C@H](CO)NC(=O)[C@H](Cc1c[nH]c2ccccc12)NC(=O)[C@H](Cc1cnc[nH]1)NC(=O)[C@@H]1CCC(=O)N1)C(=O)N[C@@H](CCCN=C(N)N)C(=O)N1CCC[C@H]1C(=O)NCC(N)=O`, the GHS category was 5.
For `CCn1cc(C(=O)O)c(=O)c2cnc(N3CCCC3)nc21`, the GHS category was 5.
`CCCCCCCCCCOC` showed a GHS category of 5.
Compound `O=S(=O)(O)c1ccc(Cl)cc1` has a GHS category of 4.
`Fc1ccc(N/C(=N/C2CCCCC2)c2ccccc2)cc1` gave a GHS category of 5.
`CCCCCCCCC=COCC` showed a GHS category of 5.
`CCC(=O)N[C@H]1CCc2nc(N)sc2C1` gave a GHS category of 5.
`OC[C@H]1NC[C@H](O)[C@@H](O)[C@@H]1O` showed a GHS category of 5.
Compound `O=C(O)CNC(c1ccccc1)c1ccc(F)cc1` (stereo unspecified) has a GHS category of 4.
Compound `CCCc1nc2ccnn2c(N2CCOCC2)c1Cc1ccc(-c2ccccc2-c2nn[nH]n2)cc1` has a GHS category of 4.
With `Oc1ccc(C(O)CN2CCN(C(c3ccccc3)c3ccccc3)CC2)cc1` (stereo unspecified) the GHS category was 5.
Work on `CSCC[C@H](NC(=O)[C@H](Cc1c[nH]c2ccccc12)NC(=O)CCNC(=O)OC(C)(C)C)C(=O)N[C@@H](CC(=O)O)C(=O)N[C@@H](Cc1ccccc1)C(N)=O` yielded a GHS category of 3.
Work on `CC(C)=CCC/C(C)=C\COC(=O)C(C)C` yielded a GHS category of 5.
Work on `O=C(O)C(=O)Nc1cccc(-c2nnn[nH]2)c1` yielded a GHS category of 5.

Source: the CATMoS acute toxicity set (Mansouri et al. 2021)
